This is an account of results in US20040192720A1, “Novel heteroaryl alkylamide derivatives useful as bradykinin receptor modulators” (priority 2003, published 2004).

In this test the target is T1, human B2 bradykinin receptors (CHO-hB2 cell membranes) (Homo sapiens, UniProt P30411).
T1 construct: purchased Receptor Biology, Inc. (Baltimore, Md.); host or cells: CHO-hB2 cells (membranes)
T1 sequence (P30411 1-391): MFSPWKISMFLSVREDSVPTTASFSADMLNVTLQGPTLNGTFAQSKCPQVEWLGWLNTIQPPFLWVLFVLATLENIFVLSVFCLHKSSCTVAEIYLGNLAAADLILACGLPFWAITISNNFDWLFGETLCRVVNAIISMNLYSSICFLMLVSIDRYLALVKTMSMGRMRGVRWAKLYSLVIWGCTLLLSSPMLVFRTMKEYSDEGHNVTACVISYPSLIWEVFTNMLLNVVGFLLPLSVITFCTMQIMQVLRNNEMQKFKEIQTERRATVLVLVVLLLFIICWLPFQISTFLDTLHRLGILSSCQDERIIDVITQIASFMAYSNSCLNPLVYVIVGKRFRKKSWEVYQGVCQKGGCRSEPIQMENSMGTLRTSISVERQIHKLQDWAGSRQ
Nature of the test: [35S]GTPγS Binding Assay in CHO-hB2 Cell Membranes. The format is biochemical. The note with it: bradykinin-stimulated [35S]GTPγS binding; for Functional Activity (% Basal): number in parentheses, concentration not given. The procedure: [^35S]GTPγS Binding Assay in CHO-hB2Cell Membranes
CHO-hB2 cell membranes were purchased from Receptor Biology, Inc. (Baltimore, Md.). 10 mg/mL of membrane protein was suspended in 10 mM TRIS-HC pH 7.2, 2 mM EDTA, 10% sucrose.
Membranes were added into 15 mL ice cold binding assay buffer. The assay buffer contained 50 mM HEPES, pH 7.6, 5 mM MgCl2, 100 mM NaCl, 1 mM DTT and 1 mM EDTA. The membrane suspension was homogenized twice with a Polytron and centrifuged at 3000 rpm for 10 min. The supernatant was then centrifuged at 18,000 rpm for 20 min. The pellet was saved in a tube and resuspended.
The pellet membranes (40 μg/mL) were preincubated with SPA (scintillation proximity assay) beads (20 mg/mL) at 25 C. ° for 45 min in the assay buffer. The SPA beads (5 mg/mL) coupled with membranes (10 μg/mL) were then incubated with 0.5 nM [^35S]GTPγS in the same HEPES buffer containing 50 μM GDP in total volume of 200 μL. Bradykinin was used to stimulate [^35S]GTPγS binding. Varying concentrations of drugs were incubated with bradykinin to inhibit bradykinin-stimulated [^35S]GTPγS binding. The basal binding was tested in the absence of bradykinin and no specific binding was tested in the present 10 μM unlabeled GTPγS. The radioactivity was quantified on a Packard Top Count, and calculated.
% of Basal=(stimulated binding−non specific binding)/(basal binding−non specific binding)×100.

Turning to `Cc1ccc2cccc(OCc3c(Cl)ccc(N(C)C(=O)Cc4ccc(C(=O)c5ccc([N+](=O)[O-])cc5)n4C)c3Cl)c2n1` [Compound 63], the “Functional Activity (word result)” value is recorded as “Antagonist”.

With `Cc1ccc2cccc(OCc3c(Cl)ccc(N(C)C(=O)Cc4ccc(C(=O)c5ccc(C#N)cc5)n4CC4CC4)c3Cl)c2n1` [Compound 11, 2-[5-(4-Cyano-benzoyl)-1-cyclopropylmethyl-1H-pyrrol-2-yl]-N-[2,4-dichloro-3-(2-methyl-quinolin-8-yloxymethyl)-phenyl]-N-methyl-acetamide], the “Functional Activity (word result)” value is “No effect” and the “Functional Activity (% Basal)” value is recorded as 1 % Basal.

In the case of `Cc1ccc2cccc(OCc3c(Cl)ccc(N(C)C(=O)Cc4ccc(C(=O)CN5CCC(Cc6ccccc6)CC5)n4C)c3Cl)c2n1` [Compound 59], the “Functional Activity (word result)” value is reported as “No effect” and the “Functional Activity (% Basal)” value came to 1 % Basal.

Take `CCn1c(CC(=O)N(C)c2ccc(Cl)c(COc3cccc4ccc(C)nc34)c2Cl)ccc1C(=O)c1ccc(C#N)cc1` [Compound 8]: the “Functional Activity (word result)” value is recorded as “Antagonist” and the “Functional Activity (% Basal)” value worked out at 40 % Basal.

As to `Cc1ccc2cccc(OCc3c(C)ccc(N(C)C(=O)CCc4ccc(C(=O)c5ccncc5)n4C)c3C)c2n1` [Compound 82], the “Functional Activity (word result)” value is listed as “Antagonist” and the “Functional Activity (% Basal)” value is on record as 50 % Basal.

Regarding `CCCn1c(CC(=O)N(C)c2ccc(Cl)c(COc3cccc4ccc(C)nc34)c2Cl)ccc1C(=O)c1ccc(C#N)cc1` [Compound 9], the “Functional Activity (word result)” value was “No effect” and the “Functional Activity (% Basal)” value was 1 % Basal.

As to `Cc1ccc2cccc(OCc3c(C)ccc(N(C)C(=O)Cc4ccc(C(=O)c5ccc(C#N)cc5)n4C)c3C)c2n1` [Compound 79, 2-[5-(4-Cyano-benzoyl)-1-methyl-1H-pyrrol-2-yl]-N-[2,4-dimethyl-3-(2-methyl-quinolin-8-yloxymethyl)-phenyl]-N-methyl-acetamide], the “Functional Activity (word result)” value is reported as “Antagonist” and the “Functional Activity (% Basal)” value was 100 % Basal.

In the case of `Cc1ccc2cccc(OCc3c(Cl)ccc(N(C)C(=O)Cc4ccc(C(=O)c5ccc(C#N)cc5)n4CC(C)C)c3Cl)c2n1` [Compound 12], the “Functional Activity (word result)” value is “No effect” and the “Functional Activity (% Basal)” value turned out to be 1 % Basal.

With `CC(=O)Nc1cccc(C(=O)c2ccc(CC(=O)N(C)c3ccc(Cl)c(COc4cccc5ccc(C)nc45)c3Cl)n2C)c1` [Compound 72], the “Functional Activity (word result)” value is given as “Antagonist”.

In the case of `COc1ccc(C(=O)c2ccc(CC(=O)N(C)c3ccc(Cl)c(COc4cccc5ccc(C)nc45)c3Cl)[nH]2)cc1` [Compound 5], the “Functional Activity (word result)” value is “Antagonist”.

For `Cc1ccc2cccc(OCc3c(Cl)ccc(N(C)C(=O)Cc4ccc(C(=O)c5ccc([S+](C)[O-])cc5)n4C)c3Cl)c2n1` (stereo not shown) [Compound 73, N-[2,4-Dichloro-3-(2-methyl-quinolin-8-yloxymethyl)-phenyl]-2-[5-(4-methanesulfinyl-benzoyl)-1-methyl-1H-pyrrol-2-yl]-N-methyl-acetamide], the “Functional Activity (word result)” value is on record as “Antagonist”.

Regarding `CCN(C(=O)Cc1ccc(C(=O)c2ccc(Cl)nc2)n1C)c1ccc(Cl)c(COc2cccc3ccc(C)nc23)c1Cl` [Compound 17], the “Functional Activity (word result)” value was “No effect” and the “Functional Activity (% Basal)” value is recorded as 1 % Basal.

In the case of `CCCCn1c(CC(=O)N(C)c2ccc(Cl)c(COc3cccc4ccc(C)nc34)c2Cl)ccc1C(=O)c1ccc(C#N)cc1` [Compound 10], the “Functional Activity (word result)” value is given as “No effect” and the “Functional Activity (% Basal)” value is recorded as 1 % Basal.

For the compound `COC(=O)c1ccc(C(=O)c2ccc(CC(=O)N(C)c3ccc(Cl)c(COc4cccc5ccc(C)nc45)c3Cl)n2C)cc1` [Compound 64], the “Functional Activity (word result)” value is “Antagonist”.

For the compound `CC(=O)Nc1ccc(C(=O)c2ccc(CC(=O)N(C)c3ccc(Cl)c(COc4cccc5ccc(C)nc45)c3Cl)n2C)cc1` [Compound 74, 2-[5-(4-Acetylamino-benzoyl)-1-methyl-1H-pyrrol-2-yl]-N-[2,4-dichloro-3-(2-methyl-quinolin-8-yloxymethyl)-phenyl]-N-methyl-acetamide], the “Functional Activity (word result)” value is on record as “Antagonist”.

In the case of `Cc1ccc2cccc(OCc3c(C)ccc(N(C)C(=O)CCc4ccc(C(=O)c5ccc(C#N)cc5)n4C)c3C)c2n1` [Compound 90], the “Functional Activity (word result)” value is on record as “Antagonist” and the “Functional Activity (% Basal)” value is on record as 50 % Basal.

As to `Cc1ccc2cccc(OCc3c(Cl)ccc(N(C)C(=O)Cc4ccc(C(=O)c5ccc(C(=O)N(C)C)cc5)n4C)c3Cl)c2n1` [Compound 62, 4-[5-({[2,4-Dichloro-3-(2-methyl-quinolin-8-yloxymethyl)-phenyl]-methyl-carbamoyl}-methyl)-1-methyl-1H-pyrrole-2-carbonyl]-N,N-dimethyl-benzamide], the “Functional Activity (word result)” value is on record as “Antagonist”.

In the case of `Cc1ccc2cccc(OCc3c(C)ccc(N(C)C(=O)CCc4ccc(C(=O)c5ccc(Cl)nc5)n4C)c3C)c2n1` [Compound 88], the “Functional Activity (word result)” value was “Antagonist”.

Turning to `Cc1ccc2cccc(OCc3c(Cl)cc(Cl)c(N(C)C(=O)Cc4ccc(C(=O)c5ccc(Cl)nc5)n4C)c3Cl)c2n1` [Compound 117, 2-[5-(6-Chloro-pyridine-3-carbonyl)-1-methyl-1H-pyrrol-2-yl]-N-methyl-N-[2,4,6-trichloro-3-(2-methyl-quinolin-8-yloxymethyl)-phenyl]-acetamide], the “Functional Activity (word result)” value is listed as “Antagonist”.

As to `Cc1ccc2cccc(OCc3c(Cl)ccc(N(C)C(=O)Cc4ccc(C(=O)c5ccc(C#N)cc5)n4C)c3Cl)c2n1` [Compound 76], the “Functional Activity (word result)” value is listed as “Antagonist”.

Consider `CCN(C(=O)Cc1ccc(C(=O)c2ccc(C#N)cc2)n1C)c1ccc(C)c(COc2cccc3ccc(C)nc23)c1C` [Compound 16], for which the “Functional Activity (word result)” value is “No effect” and the “Functional Activity (% Basal)” value stood at 1 % Basal.

For `Cc1ccc2cccc(OCc3c(C)ccc(N(C)C(=O)CCc4ccc(C(=O)c5cccs5)n4C)c3C)c2n1` [Compound 80], the “Functional Activity (word result)” value is recorded as “Weak antagonist”.

For `Cc1ccc2cccc(OCc3c(Cl)ccc(N(C)C(=O)Cc4cc(C(=O)c5ccc(C#N)cc5)n(C)c4)c3Cl)c2n1` [Compound 4, 2-[5-(4-Cyano-benzoyl)-1-methyl-1H-pyrrol-3-yl]-N-[2,4-dichloro-3-(2-methyl-quinolin-8-yloxymethyl)-phenyl]-N-methyl-acetamide], the “Functional Activity (word result)” value is listed as “Antagonist”.

On to `Cc1ccc2cccc(OCc3c(Cl)ccc(N(C)C(=O)Cc4ccc(C(=O)c5ccc(Cl)nc5)n4C)c3Cl)c2n1` [Compound 67, 2-[5-(6-Chloro-pyridine-3-carbonyl)-1-methyl-1H-pyrrol-2-yl]-N-[2,4-dichloro-3-(2-methyl-quinolin-8-yloxymethyl)-phenyl]-N-methyl-acetamide], for which the “Functional Activity (word result)” value was “Antagonist”.

As for `CCN(C(=O)Cc1ccc(C(=O)c2ccc(C#N)cc2)n1C)c1ccc(Cl)c(COc2cccc3ccc(C)nc23)c1Cl` [Compound 18], the “Functional Activity (word result)” value is “No effect” and the “Functional Activity (% Basal)” value worked out at 1 % Basal.
